Data reported in the NIST ThermoML archive (doi:10.1016/j.fluid.2004.09.013).

Details: for mass density: Fluid (supercritical or subcritical phases), Vibrating tube method; for vapor or sublimation pressure: Liquid

C/C=C\C [(Z)-2-butene]
Details | mass density [kg/m3]
393.23 K, 9997 kPa | 513.82
393.23 K, 15000 kPa | 529.93
393.23 K, 20002 kPa | 542.79
393.23 K, 24993 kPa | 553.61
393.23 K, 29998 kPa | 563
393.23 K, 35001 kPa | 571.39
393.23 K, 39987 kPa | 578.89
398.23 K, 2818 kPa | 466.01
398.23 K, 4984 kPa | 481.85
398.23 K, 20014 kPa | 537.23
398.23 K, 25003 kPa | 548.52
398.23 K, 34998 kPa | 566.9
398.23 K, 39994 kPa | 574.66
398.24 K, 9988 kPa | 506.47
398.24 K, 14995 kPa | 523.68
398.24 K, 29983 kPa | 558.24
403.23 K, 3025 kPa | 454.7
403.23 K, 14991 kPa | 517.31
403.23 K, 25002 kPa | 543.35
403.23 K, 29989 kPa | 553.46
403.23 K, 34986 kPa | 562.37
403.23 K, 39984 kPa | 570.38
403.24 K, 4991 kPa | 471.74
403.24 K, 9985 kPa | 498.93
403.24 K, 20009 kPa | 531.6
408.23 K, 14993 kPa | 510.87
408.23 K, 29988 kPa | 548.67
408.23 K, 39992 kPa | 566.14
408.24 K, 3245 kPa | 443.06
408.24 K, 5000 kPa | 461.02
408.24 K, 10003 kPa | 491.26
408.24 K, 20000 kPa | 525.89
408.24 K, 25002 kPa | 538.19
408.24 K, 35001 kPa | 557.91
413.23 K, 34991 kPa | 553.36
413.23 K, 39999 kPa | 561.87
413.24 K, 3479 kPa | 430.52
413.24 K, 4987 kPa | 448.83
413.24 K, 9995 kPa | 483.23
413.24 K, 14993 kPa | 504.29
413.24 K, 20000 kPa | 520.13
413.24 K, 25001 kPa | 532.97
413.24 K, 29987 kPa | 543.83
418.23 K, 9989 kPa | 474.95
418.23 K, 29990 kPa | 538.98
418.24 K, 3727 kPa | 416.94
418.24 K, 4983 kPa | 435.78
418.24 K, 14999 kPa | 497.65
418.24 K, 19989 kPa | 514.28
418.24 K, 24991 kPa | 527.69
418.24 K, 35007 kPa | 548.86
418.24 K, 40000 kPa | 557.55
423.24 K, 3987 kPa | 401.93
423.24 K, 4998 kPa | 421.22
423.24 K, 9996 kPa | 466.36
423.24 K, 14993 kPa | 490.76
423.24 K, 19998 kPa | 508.37
423.24 K, 24983 kPa | 522.32
423.24 K, 30000 kPa | 534.08
423.24 K, 34984 kPa | 544.2
423.24 K, 39995 kPa | 553.2
428.24 K, 4261 kPa | 385.43
428.24 K, 4996 kPa | 404.14
428.24 K, 10003 kPa | 457.53
428.24 K, 14984 kPa | 483.8
428.24 K, 20011 kPa | 502.46
428.24 K, 24985 kPa | 517
428.24 K, 29987 kPa | 529.17
428.24 K, 34985 kPa | 539.65
428.24 K, 40008 kPa | 548.93
433.24 K, 4552 kPa | 367.25
433.24 K, 5002 kPa | 383.51
433.24 K, 9988 kPa | 448.25
433.24 K, 15006 kPa | 476.83
433.24 K, 20002 kPa | 496.43
433.24 K, 24994 kPa | 511.67
433.24 K, 29984 kPa | 524.27
433.24 K, 35007 kPa | 535.14
433.24 K, 39990 kPa | 544.63
438.24 K, 5016 kPa | 356.57
438.24 K, 9984 kPa | 438.25
438.24 K, 15001 kPa | 469.64
438.24 K, 20003 kPa | 490.38
438.24 K, 24991 kPa | 506.29
438.24 K, 29997 kPa | 519.4
438.24 K, 35007 kPa | 530.6
438.24 K, 39994 kPa | 540.34
443.23 K, 5019 kPa | 312.48
443.24 K, 10006 kPa | 428.67
443.24 K, 14981 kPa | 462.28
443.24 K, 20008 kPa | 484.35
443.24 K, 24985 kPa | 500.93
443.24 K, 29991 kPa | 514.54
443.24 K, 34987 kPa | 526.05
443.24 K, 39991 kPa | 536.15
448.23 K, 5020 kPa | 224.32
448.24 K, 9992 kPa | 418.15
448.24 K, 15006 kPa | 454.98
448.24 K, 20001 kPa | 478.13
448.24 K, 24996 kPa | 495.5
448.24 K, 30011 kPa | 509.66
448.24 K, 34990 kPa | 521.51
448.24 K, 39989 kPa | 531.87
453.24 K, 5018 kPa | 172.57
453.24 K, 9981 kPa | 407.03
453.24 K, 14999 kPa | 447.35
453.24 K, 20011 kPa | 471.95
453.24 K, 24994 kPa | 490.05

Details | vapor or sublimation pressure [kPa]
396.4 K | 2209.3
400.36 K | 2343.2
407.79 K | 2693.7
414.25 K | 3004.6
416.29 K | 3089.5
422.73 K | 3456.3
425.59 K | 3598.4
430.42 K | 3884.7
433.88 K | 4101.1
